Assay results from ChEMBL document CHEMBL2074229, “Inhibition of drug transport by genistein in multidrug-resistant cells expressing P-glycoprotein” (Biochem Pharmacol, 1997).

Molecular target: ATP-dependent translocase ABCB1 (Homo sapiens, UniProt P08183)
Experiment: TP_TRANSPORTER: inhibition of Rhodamine 123 efflux (R123: 10 uM, Genistein: 200 uM) in BALB/c-3T3-1000 cells (MDR1-transfected)
Assay type: functional, cell-based
Settings: mouse, balb/c-3t3-1000, 200 µM

Chain of ATP-dependent translocase ABCB1 (P08183 whole entry): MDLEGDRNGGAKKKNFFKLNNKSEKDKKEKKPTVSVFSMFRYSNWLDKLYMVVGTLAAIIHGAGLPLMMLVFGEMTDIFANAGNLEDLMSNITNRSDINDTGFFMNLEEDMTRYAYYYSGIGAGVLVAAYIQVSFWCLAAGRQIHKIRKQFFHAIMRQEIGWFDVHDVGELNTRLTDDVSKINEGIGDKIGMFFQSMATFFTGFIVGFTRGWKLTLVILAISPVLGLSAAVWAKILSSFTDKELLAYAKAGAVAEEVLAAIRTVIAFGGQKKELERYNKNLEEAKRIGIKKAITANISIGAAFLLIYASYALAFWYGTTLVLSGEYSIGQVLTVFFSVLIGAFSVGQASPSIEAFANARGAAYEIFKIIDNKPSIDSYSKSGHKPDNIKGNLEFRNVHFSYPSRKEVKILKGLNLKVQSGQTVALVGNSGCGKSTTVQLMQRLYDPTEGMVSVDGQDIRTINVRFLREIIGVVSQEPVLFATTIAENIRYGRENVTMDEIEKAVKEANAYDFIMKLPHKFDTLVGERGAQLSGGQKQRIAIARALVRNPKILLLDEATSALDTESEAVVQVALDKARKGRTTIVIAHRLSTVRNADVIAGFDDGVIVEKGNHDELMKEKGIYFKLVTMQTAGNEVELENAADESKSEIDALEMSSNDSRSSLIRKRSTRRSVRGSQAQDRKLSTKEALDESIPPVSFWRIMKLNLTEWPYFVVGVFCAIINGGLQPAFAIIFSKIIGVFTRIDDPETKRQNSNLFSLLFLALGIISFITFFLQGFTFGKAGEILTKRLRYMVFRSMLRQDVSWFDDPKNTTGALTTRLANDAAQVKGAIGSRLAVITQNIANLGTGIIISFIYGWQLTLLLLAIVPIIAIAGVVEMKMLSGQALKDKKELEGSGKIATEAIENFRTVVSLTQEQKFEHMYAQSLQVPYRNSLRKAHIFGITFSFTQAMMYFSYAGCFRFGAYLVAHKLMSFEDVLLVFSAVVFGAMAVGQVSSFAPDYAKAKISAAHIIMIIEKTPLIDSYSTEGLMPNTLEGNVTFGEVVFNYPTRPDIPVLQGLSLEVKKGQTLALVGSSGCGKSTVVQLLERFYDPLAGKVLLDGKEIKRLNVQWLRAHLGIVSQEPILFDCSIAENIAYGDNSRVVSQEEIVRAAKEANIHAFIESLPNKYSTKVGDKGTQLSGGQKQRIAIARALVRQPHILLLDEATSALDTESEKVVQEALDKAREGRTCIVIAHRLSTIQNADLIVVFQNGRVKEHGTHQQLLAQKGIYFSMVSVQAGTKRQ

Inhibition: inhibitor [50-60 % inhibition]
Structure (SMILES): O=c1c(-c2ccc(O)cc2)coc2cc(O)cc(O)c12 [GENISTEIN]
